Source: patent US9505768B2, “Compositions and methods for modulating TLR4” (The Regents of the University of California, priority 2012, dated 2016)
Entries after “also recorded” stand apart in the source; their conditions may differ. Read-outs that look alike come from different tables or passages of the source.

What was measured:
[1] = test system: mouse bone marrow derived dendritic cells (mBMDC); assay: IL-6 induction in mouse bone marrow derived dendritic cells (ELISA); assay type: cell-based; settings: relative to Cmpd 1 / within series
Description: (§1) The above assays were utilized to compare the derivatives of the lead pyrimidoindole for their ability to activate mouse and human TLR4. […] Each cytokine induction curve was first converted to a percent activity curve, and then the AUC of the percent activity curve was calculated. The process of converting to a percent activity curve allowed subtracting background and adjusting for plate-to-plate variation.
(§2) BMDC were prepared from C57BL/6 mice as described. See e.g., Wu, C. […] BMDC (10^5 cells per well) were plated in 96-well plates in 200 μL of complete RPMI1640 supplemented with 10% fetal calf serum (FCS; Sigma Aldrich), 100 U/mL penicillin, and 100 μg/mL streptomycin (Invitrogen). […] After 18 h incubation, the cell culture supernatants were collected. LPS (purified LPS, Invivogen, San Diego, Calif.) or MPLA (1 μg/mL synthetic MPLA, Invivogen, San Diego, Calif.) were used as positive controls. […] The AUC was calculated from BMDC dose-response curves using Prism 5 (GraphPad, San Diego). Each cytokine induction curve was first converted to a percent activity curve, and then the AUC of the percent activity curve was calculated. The process of converting to a percent activity curve allowed subtracting background and adjusting for plate-to-plate variation.

[2] = test system: mouse bone marrow derived dendritic cells (mBMDC); assay: IP-10 induction in mBMDC (ELISA), surrogate marker of type I IFN; assay type: cell-based; settings: relative to Cmpd 1
Description: In addition to the production of inflammatory cytokines (IL-6, IL-12, TNFα, etc.) mediated by NFκB activation, TLR4 signaling can result in the production of type I interferons, a feature that is not only important for activation of dendritic cells leading to good adjuvant activity, but would also be important for rapid defense against a variety of pathogens, particularly viruses. […] To determine the relative ability of all compounds to induce the production of type 1 IFN, each was evaluated in mouse bone marrow derived dendritic cells as shown in Tables 1-3.
as §2
In addition, the levels of IP-10, a surrogate marker of type I IFN, in the supernatants were determined by ELISA (R&D Systems, Minneapolis, Minn.).

mouse TLR4 = target: T1, mouse TLR4 (Mus musculus, UniProt Q9JHF9+Q9QUK6); assay: Murine TLR4 HEK Blue NFκB/SEAP reporter assay; assay type: cell-based; settings: mTLR4 HEK transfectoma, 312 nM to 10 μM; Cmpd 1 set at 100
T1 construct: host or cells: HEK293 (HEK Blue) cells with NFκB/SEAP reporter
T1 sequence (Q9QUK6 26-835): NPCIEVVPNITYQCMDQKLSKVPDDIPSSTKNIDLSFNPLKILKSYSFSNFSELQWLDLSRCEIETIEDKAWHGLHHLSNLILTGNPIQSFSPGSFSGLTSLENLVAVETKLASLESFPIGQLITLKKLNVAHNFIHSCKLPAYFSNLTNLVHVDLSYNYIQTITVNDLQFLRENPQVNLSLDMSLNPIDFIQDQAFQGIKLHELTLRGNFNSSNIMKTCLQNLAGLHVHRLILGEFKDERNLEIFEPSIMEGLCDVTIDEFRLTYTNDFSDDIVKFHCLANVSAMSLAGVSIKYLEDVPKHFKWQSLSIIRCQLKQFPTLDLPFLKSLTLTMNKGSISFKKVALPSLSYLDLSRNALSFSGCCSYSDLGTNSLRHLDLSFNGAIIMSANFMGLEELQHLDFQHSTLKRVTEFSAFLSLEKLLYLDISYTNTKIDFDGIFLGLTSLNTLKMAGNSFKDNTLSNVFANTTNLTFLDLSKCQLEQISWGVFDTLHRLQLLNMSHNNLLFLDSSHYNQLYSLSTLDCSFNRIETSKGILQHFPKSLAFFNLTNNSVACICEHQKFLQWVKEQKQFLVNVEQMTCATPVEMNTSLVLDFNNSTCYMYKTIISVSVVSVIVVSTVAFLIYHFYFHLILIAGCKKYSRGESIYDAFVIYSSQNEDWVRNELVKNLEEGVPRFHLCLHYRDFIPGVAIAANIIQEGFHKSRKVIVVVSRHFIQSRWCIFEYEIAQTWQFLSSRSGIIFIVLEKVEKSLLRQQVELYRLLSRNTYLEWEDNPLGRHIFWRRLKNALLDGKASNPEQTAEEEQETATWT
T1 sequence (Q9JHF9 19-160): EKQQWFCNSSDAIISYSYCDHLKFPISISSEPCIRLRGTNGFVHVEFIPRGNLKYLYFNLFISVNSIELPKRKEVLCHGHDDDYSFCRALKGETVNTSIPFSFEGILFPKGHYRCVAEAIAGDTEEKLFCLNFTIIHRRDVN
Description: as §1
(§3) The culture supernatants were harvested after a 20-24 h incubation period. SEAP activity in the supernatants was determined by a colorimetric assay, using either the SEAPorter Assay Kit (Imgenex), with absorbance read at 405 nm, or QuantiBlue (Invivogen), with absorbance read at 630 nm.

human TLR4 = target: T2, human TLR4 (Homo sapiens, UniProt O00206+Q9Y6Y9); assay: Human TLR4 HEK Blue NFκB/SEAP reporter assay; assay type: cell-based; settings: hTLR4 HEK293 transfectoma; all compounds tested at 10 μM; Cmpd 1 set at 100
T2 construct: host or cells: HEK293 (HEK Blue) cells with NFκB/SEAP reporter
Description: as §1, §3

C57BL/6 mice [3] = assay: Protection from LPS/galactosamine-induced lethal liver injury; assay type: in vivo, mouse; settings: for Survival: i.p. pretreatment (500 nmol Cmpd, 40 μg MPLA), next day LPS 0.2 μg + galactosamine 12 mg per animal, survivors/treated
Description: FIGS. 11A-11B depict that administration of Cmpd 42 and Cmpd 33 protects hosts from LPS-induced lethal liver injury. FIG. 11A: Schematic showing that C57BL/6 mice were intraperitoneously injected with 500 nmol Cmpd. 42 (n=11) or Cmpd 33 (n=11). 40 μg MPLA (n=9) and vehicle (n=9) were used as positive and negative controls, respectively. Next day, mice were challenged with LPS (0.2 μg/animal) and galactosamine (12 mg/animal). FIG. 11B: Histogram showing results of sera collected 1.5 h post challenge and measured for TNFα. *:p<0.05 compared to vehicle treated mice.
Lipopolysaccharide (LPS), a TLR4 ligand, causes severe lethal liver injury when administered with galactosamine. Pretreatment of mice with MPLA is known to improve the survival in this model. To study whether Cmpd 42 and Cmpd 33 are able to act as immunomodulatory agents similar to MPLA, the mice were treated with Cmpd 42 or Cmpd 33 and challenged with LPS/galatosamine the next day, as depicted in FIG. 11A. Over 80% of Cmpd 42 and 100% of Cmpd 33-treated mice survived.

C57BL/6 mice [4] = test system: C57BL/6 mice
[5] = test system: mouse bone marrow derived dendritic cells (mBMDC); assay: IL-6 induction in mouse bone marrow derived dendritic cells (ELISA); assay type: cell-based; settings: 5 μM overnight, vs C57BL/6 WT
[6] = test system: mouse bone marrow derived dendritic cells (mBMDC); assay: IP-10 induction in mBMDC (ELISA), surrogate marker of type I IFN; assay type: cell-based; settings: 5 μM overnight, vs C57BL/6 WT

T2 sequence (O00206 24-839): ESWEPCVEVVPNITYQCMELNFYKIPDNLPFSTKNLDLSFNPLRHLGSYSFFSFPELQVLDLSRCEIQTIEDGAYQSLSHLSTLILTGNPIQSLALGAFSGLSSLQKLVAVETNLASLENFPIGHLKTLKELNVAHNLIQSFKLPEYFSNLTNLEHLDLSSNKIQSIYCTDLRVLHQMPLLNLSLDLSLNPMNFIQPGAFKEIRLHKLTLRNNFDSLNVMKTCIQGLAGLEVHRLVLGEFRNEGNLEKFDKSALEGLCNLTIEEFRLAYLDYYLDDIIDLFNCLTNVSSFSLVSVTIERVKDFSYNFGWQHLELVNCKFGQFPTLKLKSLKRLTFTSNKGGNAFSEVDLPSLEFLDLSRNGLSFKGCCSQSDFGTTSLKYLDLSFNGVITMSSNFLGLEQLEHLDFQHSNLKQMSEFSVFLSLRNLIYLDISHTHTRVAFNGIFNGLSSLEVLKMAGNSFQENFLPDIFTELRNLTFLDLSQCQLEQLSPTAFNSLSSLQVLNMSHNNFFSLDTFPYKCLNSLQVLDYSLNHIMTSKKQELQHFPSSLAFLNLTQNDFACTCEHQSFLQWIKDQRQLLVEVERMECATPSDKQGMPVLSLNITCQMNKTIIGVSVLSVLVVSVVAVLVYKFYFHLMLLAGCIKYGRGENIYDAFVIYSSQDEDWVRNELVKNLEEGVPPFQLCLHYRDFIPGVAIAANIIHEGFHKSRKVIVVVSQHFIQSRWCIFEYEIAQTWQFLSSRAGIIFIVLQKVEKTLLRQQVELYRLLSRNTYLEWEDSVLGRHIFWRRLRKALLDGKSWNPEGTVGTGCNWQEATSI
T2 sequence (Q9Y6Y9 19-160): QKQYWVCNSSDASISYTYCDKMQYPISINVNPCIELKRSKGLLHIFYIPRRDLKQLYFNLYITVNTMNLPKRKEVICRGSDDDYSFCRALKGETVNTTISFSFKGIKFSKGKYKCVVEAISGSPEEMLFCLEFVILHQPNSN

## CCCC(C)NC(=O)CSc1nc2c([nH]c3ccccc32)c(=O)n1-c1ccccc1 (stereo not shown) [Compound 30, 2-((4-oxo-3-phenyl-4,5-dihydro-3H-pyrimido[5,4-b]indol-2-yl)thio)-N-(pentan-2-yl)acetamide]
[1]
  IL-6 activity in mBMDC (in words): diminished IL-6 release
[2]
  IP-10 production in mBMDC (in words): nearly equivalent induction of IP-10
Mouse TLR4
  mouse TLR4, area under curve (AUC) values normalized to Cmpd 1: 17
Human TLR4
  human TLR4, values normalized to Cmpd 1: 13

## CC(C)(C)CCNC(=O)CSc1nc2c([nH]c3ccccc32)c(=O)n1-c1ccccc1 [Compound 28, N-(3,3-dimethylbutyl)-2-((4-oxo-3-phenyl-4,5-dihydro-3H-pyrimido[5,4-b]indol-2-yl)thio)acetamide]
[1]
  IL-6 activity in mBMDC (in words): among the most active of the alkyls; also recorded: high IL-6
[2]
  IP-10 production in mBMDC (in words): high IP-10 production
Mouse TLR4
  mouse TLR4, area under curve (AUC) values normalized to Cmpd 1: 126
Human TLR4
  human TLR4, values normalized to Cmpd 1: 72

## O=C(CSc1nc2c([nH]c3ccccc32)c(=O)n1-c1ccccc1)NC1CCCCCC1 [Compound 9, N-Cycloheptyl-2-((4-oxo-3-phenyl-4,5-dihydro-3H-pyrimido[5,4-b]indol-2-yl)thio)acetamide]
[1]
  IL-6 activity in mBMDC (in words): the most active; also recorded: high IL-6
[2]
  IP-10 production in mBMDC (in words): high IP-10 production
Mouse TLR4
  mouse TLR4, area under curve (AUC) values normalized to Cmpd 1: 99
Human TLR4
  human TLR4, values normalized to Cmpd 1: 100

## CC(C)CCNC(=O)CSc1nc2c([nH]c3ccccc32)c(=O)n1-c1ccccc1 [Compound 27, N-isopentyl-2-((4-oxo-3-phenyl-4,5-dihydro-3H-pyrimido[5,4-b]indol-2-yl)thio)acetamide]
[1]
  IL-6 activity in mBMDC (in words): somewhat less active
Mouse TLR4
  mouse TLR4, area under curve (AUC) values normalized to Cmpd 1: 56
Human TLR4
  human TLR4, values normalized to Cmpd 1: 38

## monophosphoryl lipid A [MPLA, reference compound]
C57BL/6 mice [3]
  Survival: 8/9
C57BL/6 mice [4]; i.p. 500 nmol Cmpd 42, MPL 40 μg or LPS 0.2 μg mixed with galactosamine 12 mg, survivors/treated
  Survival: 0/5
C57BL/6 mice [4]; with galactosamine 12 mg/animal, up to 15 μmol/animal Cmpd 33, 1 μmol/animal Cmpd 42, 10 μg/animal MPLA
  Serum TNFα levels: induced detectable TNFα

## O=C(CSc1nc2c([nH]c3ccccc32)c(=O)n1CCc1ccccc1)NC1CCCCC1 [Compound 40, N-cyclohexyl-2-((4-oxo-3-phenethyl-4,5-dihydro-3H-pyrimido[5,4-b]indol-2-yl)thio)acetamide]
[1]
  IL-6 activity in mBMDC (in words): total loss of activity
Mouse TLR4
  mouse TLR4, area under curve (AUC) values normalized to Cmpd 1: 1
Human TLR4
  human TLR4, values normalized to Cmpd 1: 1

## O=C(CSc1nc2c([nH]c3ccccc32)c(=O)n1-c1ccccc1)NCC1CCCO1 (stereo not shown) [Compound 33, 2-((4-oxo-3-phenyl-4,5-dihydro-3H-pyrimido[5,4-b]indol-2-yl)thio)-N-((tetrahydrofuran-2-yl)methyl)acetamide]
[1]
  IL-6 activity in mBMDC (in words): diminished IL-6 release
[2]
  IP-10 production in mBMDC (in words): nearly equivalent induction of IP-10
Mouse TLR4
  mouse TLR4, area under curve (AUC) values normalized to Cmpd 1: 21
Human TLR4
  human TLR4, values normalized to Cmpd 1: 13
C57BL/6 mice [3]; […] post challenge, compared to vehicle treated mice
  serum TNFα: significantly lower level
C57BL/6 mice [3]; i.p. pretreatment 500 nmol, LPS/galactosamine challenge next day
  mice survived: 100%
C57BL/6 mice [3]
  Survival: 11/11
C57BL/6 mice [4]; liver injury model with galactosamine
  maximum tolerated dose relative to MPLA: over 100 times
[5]
  IL-6 secretion in MyD88 null dendritic cells: significantly impaired
[6]
  IP-10 induction in LPS mutant (Trif lps/lps) cells: significantly decreased

## CCC(C)CCNC(=O)CSc1nc2c([nH]c3ccccc32)c(=O)n1-c1ccccc1 (stereo not shown) [Compound 29, N-(3-methylpentyl)-2-((4-oxo-3-phenyl-4,5-dihydro-3H-pyrimido[5,4-b]indol-2-yl)thio)acetamide]
[1]
  IL-6 activity in mBMDC (in words): diminished IL-6 release
[2]
  IP-10 production in mBMDC (in words): nearly equivalent induction of IP-10
Mouse TLR4
  mouse TLR4, area under curve (AUC) values normalized to Cmpd 1: 29
Human TLR4
  human TLR4, values normalized to Cmpd 1: 17

## O=C(CSc1nc2c([nH]c3ccccc32)c(=O)n1-c1ccccc1)NC1CCC1 [Compound 12, N-cyclobutyl-2-((4-oxo-3-phenyl-4,5-dihydro-3H-pyrimido[5,4-b]indol-2-yl)thio)acetamide]
[1]
  IL-6 activity in mBMDC (in words): diminished IL-6 release
[2]
  IP-10 production in mBMDC (in words): nearly equivalent induction of IP-10
Mouse TLR4
  mouse TLR4, area under curve (AUC) values normalized to Cmpd 1: 18
Human TLR4
  human TLR4, values normalized to Cmpd 1: 32

## O=C(CSc1nc2c([nH]c3ccccc32)c(=O)n1C1CCCCC1)NC1CCCCC1 [Compound 36, N-cyclohexyl-2-((3-cyclohexyl-4-oxo-4,5-dihydro-3H-pyrimido[5,4-b]indol-2-yl)thio)acetamide]
[1]
  IL-6 activity in mBMDC (in words): some loss of activity
Mouse TLR4
  mouse TLR4, area under curve (AUC) values normalized to Cmpd 1: 56
Human TLR4
  human TLR4, values normalized to Cmpd 1: 40

## O=C(CSc1nc2c([nH]c3ccccc32)c(=O)n1-c1ccc2ccccc2c1)NC1CCCCC1 [Compound 39, N-cyclohexyl-2-((3-(naphthalen-2-yl)-4-oxo-4,5-dihydro-3H-pyrimido[5,4-b]indol-2-yl)thio)acetamide]
[1]
  IL-6 activity in mBMDC (in words): total loss of activity
Mouse TLR4
  mouse TLR4, area under curve (AUC) values normalized to Cmpd 1: 6
Human TLR4
  human TLR4, values normalized to Cmpd 1: 3

## O=C(CSc1nc2c([nH]c3ccccc32)c(=O)n1-c1ccccc1)NC1CCCCCCC1 [Compound 10, N-cyclooctyl-2-((4-oxo-3-phenyl-4,5-dihydro-3H-pyrimido[5,4-b]indol-2-yl)thio)acetamide]
[1]
  IL-6 activity in mBMDC (in words): the most active; also recorded: high IL-6
[2]
  IP-10 production in mBMDC (in words): high IP-10 production
Mouse TLR4
  mouse TLR4, area under curve (AUC) values normalized to Cmpd 1: 95
Human TLR4
  human TLR4, values normalized to Cmpd 1: 64
